In patent publication US8921642B2, “Conditional-stop dimerizable caspase transgenic animals” (Massachusetts Eye and Ear Infirmary, priority 2008, dated 2014):

Key:
[1] = test system: cells cotransfected with pCAN-Cre and pCMVflox (dimerizable caspase); assay: MTT assay of cell viability after dimerizer treatment of transfected cells; type: cell-based; conditions: treated 24 hours after transfection, read 48 hours later; only in the group where both Cre-recombinase and transgene were transfected
Description: To confirm that the system works, the effect of the dimerizer, AP20187, was examined in vitro on cells that were transfected with either pCAN-Cre or pCMVflox, or cotransfected with both. 24 hours after transfection, cells were treated with the dimerizer AP20187, and 48 hours later cell-viability/dying cells were examined using a standard MTT (3-(4,5-dimethylthiazol-2-yl)-2,5-diphenyltetrazolium bromide) assay.

[2] = test system: cells co-transfected with Cre and dimerizable caspase-3 transgene; assay: LIVE/DEAD analysis of co-transfected cells versus original pSHMFv2Caspase3E; type: cell-based; conditions: LIVE/DEAD analysis in the presence of AP20187
Description: To determine the extent of cell ablation, the co-transfected cells were compared with the original pSHMFv2Caspase3E in the presence of AP20187 using LIVE/DEAD analysis (Invitrogen). The number of dying cells and the decrease in cell viability was almost same in the co-transfected group as compared to the original plasmid transfection group (FIGS. 6B-6C).

[3] = test system: inner and outer hair cells; assay: organ of Corti explant culture of double transgenics in medium containing AP20187; type: cell-based, mouse; conditions: within 24 hours of incubation
auditory hair cells = assay: in vivo hair cell ablation and hearing loss in Brn3c-Cre double transgenic mice; set-up: species or system mouse
Description: Auditory hair cells are the mechanosensory channel that transduce sound waves to action potentials. Since mammalian hair cells cannot spontaneously regenerate once lost, regenerative medicine for hearing loss would be of great importance, and it has been difficult to establish a reproducible model for ablation of hair cells. The transgenic mice described herein (line D) were mated with a hair cell-specific, Brn3c-Cre mouse from Doug Vetter (Xiang et al., Proc. Natl. Acad. Sci. U.S.A. 94(17):9445-50 (1997); Sage et al., Proc. Nat. Acad. Sci. 103(19):7345-7350 (2006)).
In vivo experiments were also performed. Animals at 6-8 weeks of age were administered AP20187 (10 mg/kg ip) and analyzed six days later. […] Approximately 35˜40% of inner hair cells and 15% of outer hair cells were lost, as judged by Pv3 staining.

[4] = test system: beta cells of the pancreas; assay: in vivo beta cell ablation in Ins-Cre double transgenic mice (IPGTT, GTT); set-up: species or system mouse
Description: Diabetes is cause by loss of insulin producing beta cells in the pancreas. These cells cannot be replaced by known techniques. A model for impaired glucose tolerance was constructed by crossing the transgenic mouse (line B) described herein with an Ins-Cre mouse (Jackson Labs). […] This model has the characteristics of a pre-diabetic mouse.
The FK506 analogue AP20187 was administered by intraperitoneal (IP) injection. β-cell death was monitored in the animals by intraperitoneal glucose tolerance testing (IPGTT) using standard methodology.
The effect on blood glucose levels was also evaluated using a standard glucose tolerance test (GTT). 30 minutes after a glucose challenge, a blood sample was obtained from the tail vein and a measurement of blood glucose was obtained with a glucose monitor.

[5] = target: FKBPs with a single amino acid substitution: Phe36Val (Homo sapiens, UniProt P62942, F37V); conditions: cited from earlier work
native FKBPs = native FKBPs (Homo sapiens, UniProt P62942); conditions: cited from earlier work
[6] = test system: Rosa26-CreER (Cre recombinase); assay: tamoxifen-induced Cre recombination in cells from Rosa26-CreER double transgenic mice; type: cell-based, mouse; conditions: cells from line F x Rosa26-CreER double transgenic mice, in the presence of tamoxifen
Description: To provide a model for ready confirmation of the function of the conditional-stop dimerizable caspase transgene, the transgenic mice described herein (line F) were crossed with Rosa26-CreER mice. In vitro experiments on cells from the mice were contacted with tamoxifen to induce expression of the Cre recombinase, and the results, shown in FIG. 13, indicate successful recombination and expression of the transgene.

[7] = 10 mg/kg ip, six days later, treated animals
[8] = immunohistochemistry after AP20187 administration

Chain of FKBPs with a single amino acid substitution: Phe36Val (P62942 2-108 F37V limits assumed): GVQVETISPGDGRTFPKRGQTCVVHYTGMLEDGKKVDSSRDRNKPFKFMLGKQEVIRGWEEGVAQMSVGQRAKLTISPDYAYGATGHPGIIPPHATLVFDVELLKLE
Chain of native FKBPs (P62942 whole entry): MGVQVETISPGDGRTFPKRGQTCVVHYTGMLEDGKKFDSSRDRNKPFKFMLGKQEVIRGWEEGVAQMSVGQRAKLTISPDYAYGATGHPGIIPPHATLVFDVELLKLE

Structure (SMILES) | cell viability by MTT assay [1] | number of dying cells and decrease in cell viability, co-transfected group compared to original plasmid transfection group [2] | inner hair cell loss [3] [%] | outer hair cell loss [3] [%] | decrease in the amplitude of the auditory brainstem response (ABR) (auditory hair cells; 10 mg/kg ip, analyzed six days later, compared with same-animal measurements before treatment) [%] | inner hair cells lost after drug treatment (auditory hair cells; 10 mg/kg ip, six days later) [%] | ISO-DP (threshold required to obtain a given level of response) (auditory hair cells; [7]) | distortion product otoacoustic emissions (DPOAE) (auditory hair cells; [7]) | changes in the spiral ganglion (auditory hair cells; [8]) | inner hair cells lost, as judged by Pv3 staining (auditory hair cells; [8]) | outer hair cells lost, as judged by Pv3 staining (auditory hair cells; [8]) [%] | blood glucose levels in glucose tolerance test (GTT) ([4]; 30 minutes after a glucose challenge, tail vein blood) | glucose control by intraperitoneal glucose tolerance testing (IPGTT) ([4]; IP injection, Ins-Cre double transgenic animals, more pronounced in females than in males) | binding to FKBPs with Phe36Val substitution [5] | binding to the native FKBPs (native FKBPs) | recombination of the transgene (PCR product on gel) [6]
CC[C@H](C(=O)N1CCCC[C@H]1C(=O)O[C@H](CCc1ccc(OC)c(OC)c1)c1cccc(OCC(=O)NCC(CNC(=O)COc2cccc([C@@H](CCc3ccc(OC)c(OC)c3)OC(=O)[C@@H]3CCCCN3C(=O)[C@@H](CC)c3cc(OC)c(OC)c(OC)c3)c2)CN(C)C)c1)c1cc(OC)c(OC)c(OC)c1 [AP20187] | significantly reduced | almost same | 38.8 | 32.4 | 60 | 37.8 | significantly increased | significantly decreased | No remarkable changes | 35˜40% | ~15 | significant increased | partial loss of glucose control | bind with high affinity | do not bind | 
CC/C(=C(\c1ccccc1)c1ccc(OCCN(C)C)cc1)c1ccccc1 [tamoxifen] |  |  |  |  |  |  |  |  |  |  |  |  |  |  |  | recombined product at 200 bp is present
